Test results from patent EP2982368A1, “Small molecule compounds displacing focal adhesion core components” (Universität Konstanz, priority 2014, dated 2016).
Entries after “also recorded” stand apart in the source; their conditions may differ.

What was measured:
[1] = system: MDA-MB-231 breast cancer cells; assay: In vitro wound healing assay; type: cell-based, human; settings: 3 µM, 25 h, serum-containing growth medium
Protocol: Image J was used to automatically quantify FAK-containing focal adhesions due to local maxima of fluorescence intensity in the GFP-channel (5 to 70 pixel). The number of cells was automatically counted in the Hoechst channel. To test reproducibility of the system 40 control wells were quantified wherein four positions for each well were imaged. […] GFP-FAK mouse embryonic fibroblasts were seeded on fibronectin and incubated for 1 h with the indicated concentrations of the small compounds, respectively. […] GFP-FAK mouse embryonic fibroblasts were seeded on fibronectin and serum-starved overnight. The indicated concentrations of Mb31 were applied for 30 min. Cells were lysed and analyzed for paxillin and FAK protein level as well as FAK Tyr397 phosphorylation. […] The purified kinase domain of FAK was incubated with increasing amounts of Mb31 for 1 h at 30°C together with poly-Glu-Tyr as a FAK substrate. […] Serum-starved GFP-FAK mouse embryonic fibroblasts were stimulated with normal growth medium and incubated for 5 h with the indicated concentrations of the small molecule compounds, respectively. Cell viability was assessed by MTT assay. […] GFP-FAK MEFs were seeded on fibronectin and serum-starved overnight. Migration was stimulated by replacing the medium with normal growth medium. Migration of single cells was tracked for 8 h in 30 min intervals. Migration was recorded from cells that were cultured without serum (A), with serum (B) or with serum in the presence of 3 µM Mb31 (C). […] (A) GFP-FAK MEFs were seeded and serum-starved as in Figure 10. Cell migration was stimulated with normal growth medium and single cells were tracked for 5 h. (B) Mb31 was added and the same cells were tracked for additional 5 h. (C) Mean velocities of differently treated cells were plotted over time. […] NIH-v-Src fibroblasts were seeded on 2 µg/ml FN in DMEM/0.5%BSA and stimulated with 10 ng/ml EGF or kept unstimulated. […] Mouse embryonic fibroblasts (MEFs) were transfected with talin-mCherry and talin dynamics analyzed in focal adhesions using fluorescence recovery after photobleaching (FRAP). Cells were left untreated (A) or treated with 10 µM of Mb31 (B). In untreated cells, the mCherry intensity recovered, indicating replacement of bleached by non-bleached talin and therefore turnover of talin at focal adhesions. […] (C) Wound closure was microscopically analyzed and evaluated using ImageJ software.
To determine if the migration of transformed cells can be blocked by FLocker1 and related compounds, human breast carcinoma cells (MDA-MB-231) were used in in vitro wound healing assays. […] The ability of the cells to migrate and close the wound space was monitored by microscopy and quantified (Figure 18B and C).

FAK/Paxillin = molecular target: T1, FAK/Paxillin (Mus musculus, UniProt P34152+Q8VI36); assay: FAK/Paxillin displacement by structurally related compounds (FootLocker series, confocal microscopy); type: cell-based
T1 construct: expressed in transfected cells; host or cells: mouse fibroblasts stably expressing GFP-FAK
T1 sequence (P34152 whole entry): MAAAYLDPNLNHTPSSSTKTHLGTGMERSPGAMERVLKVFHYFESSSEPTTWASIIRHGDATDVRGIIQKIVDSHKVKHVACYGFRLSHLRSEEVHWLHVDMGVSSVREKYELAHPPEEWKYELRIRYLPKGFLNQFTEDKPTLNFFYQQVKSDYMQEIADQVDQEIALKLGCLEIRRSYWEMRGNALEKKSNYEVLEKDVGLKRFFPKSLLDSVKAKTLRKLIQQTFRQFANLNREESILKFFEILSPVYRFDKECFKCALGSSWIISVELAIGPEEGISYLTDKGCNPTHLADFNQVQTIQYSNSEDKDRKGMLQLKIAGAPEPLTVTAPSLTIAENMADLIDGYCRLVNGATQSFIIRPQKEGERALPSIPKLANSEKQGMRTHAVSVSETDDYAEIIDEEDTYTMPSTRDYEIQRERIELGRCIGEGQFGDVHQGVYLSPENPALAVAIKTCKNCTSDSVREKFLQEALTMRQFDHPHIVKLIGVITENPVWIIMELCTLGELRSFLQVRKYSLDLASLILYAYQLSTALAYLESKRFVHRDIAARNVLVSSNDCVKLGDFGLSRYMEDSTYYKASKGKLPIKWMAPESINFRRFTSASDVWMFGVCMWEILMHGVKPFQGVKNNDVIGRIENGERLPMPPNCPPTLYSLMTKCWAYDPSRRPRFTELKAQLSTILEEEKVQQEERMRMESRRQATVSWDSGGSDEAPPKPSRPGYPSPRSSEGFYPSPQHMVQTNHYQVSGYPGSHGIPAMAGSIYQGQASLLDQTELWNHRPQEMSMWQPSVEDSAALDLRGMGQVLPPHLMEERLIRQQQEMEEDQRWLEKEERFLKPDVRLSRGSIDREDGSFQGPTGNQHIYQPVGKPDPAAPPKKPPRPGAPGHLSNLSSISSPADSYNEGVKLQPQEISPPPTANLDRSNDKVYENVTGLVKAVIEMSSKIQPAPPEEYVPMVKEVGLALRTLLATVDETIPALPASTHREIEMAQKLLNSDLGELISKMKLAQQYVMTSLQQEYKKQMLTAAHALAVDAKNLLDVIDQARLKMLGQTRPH
T1 sequence (Q8VI36 whole entry): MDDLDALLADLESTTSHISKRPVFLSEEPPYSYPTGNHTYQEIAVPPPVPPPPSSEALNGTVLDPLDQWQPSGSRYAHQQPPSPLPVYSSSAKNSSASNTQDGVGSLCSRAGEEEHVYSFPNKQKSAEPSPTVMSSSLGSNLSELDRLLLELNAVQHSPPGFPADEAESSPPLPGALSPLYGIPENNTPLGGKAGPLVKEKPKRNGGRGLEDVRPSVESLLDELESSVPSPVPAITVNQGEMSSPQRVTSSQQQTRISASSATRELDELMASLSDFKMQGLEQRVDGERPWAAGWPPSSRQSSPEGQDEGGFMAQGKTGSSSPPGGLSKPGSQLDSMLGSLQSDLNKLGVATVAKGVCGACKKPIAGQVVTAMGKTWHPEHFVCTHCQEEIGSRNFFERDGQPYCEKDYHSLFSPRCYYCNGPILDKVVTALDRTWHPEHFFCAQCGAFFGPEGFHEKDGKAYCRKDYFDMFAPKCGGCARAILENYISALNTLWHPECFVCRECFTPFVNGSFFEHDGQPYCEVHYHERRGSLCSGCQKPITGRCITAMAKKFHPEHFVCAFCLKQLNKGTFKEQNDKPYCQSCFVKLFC
Protocol: To determine whether compounds structurally related to Mb31 and Mb36 are likewise suitable to interfere with FAK localization at focal adhesions, mouse fibroblasts stably expressing GFP-FAK were treated for 30 min with 1, 10 or 20 µM of the following compounds: trans-3-hydroxy-β-nitrostyrene (THBN), trans-4-Chloro-β-nitrostyrene (T4CN), trans-β-nitrostyrene (TBN), 4-chlorocinnamic acid (4CA), and trans-3-(4-bromothiophen-2-yl)acrylic acid (T34BA) (Figures 16 and 17). The cells were analyzed by confocal microscopy for GFP-FAK localization. DMSO treatment served as a vehicle control. […] Additional substituents at the aromatic structures, such as halogen atoms or hydroxy groups may contribute to the reactivity of the compound, but are not essential. Based on these findings, the inventors have extended their structure activity-relationship studies and synthesized additional related compounds, which, similar to Mb31, displace FAK and paxillin at concentrations below 10µM (++), displace FAK and paxillin at concentrations above 10 µM (+), or lack FAK and paxillin displacing activity (-). All these substances were then also nicknamed in the FLocker terminology, resulting in FLocker1 - FLocker24 (Table 2). Table 2: Overview of FootLocker nomenclature, their chemical notation/structure and the activity towards FAK/Paxillin displacement

focal adhesion proteins = assay: Localization of focal adhesion proteins (fluorescent fusion proteins) in presence of Mb31; type: cell-based, Mouse; settings: 10 µM Mb31, 30 min; value is the protein
Protocol: In order to investigate the kinetics of FAK displacement at focal adhesions a time series was performed. GFP-FAK MEFs were treated with 20 µM of Mb31 or Mb36 and fixed after different time points. […] Mb36 kinetic was slightly slower with FAK delocalization after 20 min. In addition, GFP-FAK MEFs were treated with increasing concentrations of Mb31 or Mb36 to determine the minimum concentration required to interfere with FAK localization. Untreated or solvent (DMSO) treated cells show the expected localization of FAK at focal adhesions. […] Already 2 µM of Mb31 were sufficient to induce FAK displacement. […] Due to the faster kinetic and lower IC50 compared to Mb36 further studies were mainly performed using Mb31. […] In contrast, vinculin localization and the focal adhesion localization of talin, α-actinin, and zyxin is not disturbed (Figure 5 and Table 1).
Mouse embryonic fibroblasts expressing the indicated proteins as fluorescent fusion proteins were incubated with 10 µM Mb31 or solvent alone for 30 min. Afterwards, the cells were fixed and the localization of the focal adhesion proteins was analyzed microscopically.

[2] = system: GFP-FAK mouse embryonic fibroblasts; assay: MTT assay (cell viability); type: cell-based; settings: 5 h compound exposure
Protocol: Image J was used to automatically quantify FAK-containing focal adhesions due to local maxima of fluorescence intensity in the GFP-channel (5 to 70 pixel). The number of cells was automatically counted in the Hoechst channel. To test reproducibility of the system 40 control wells were quantified wherein four positions for each well were imaged. […] GFP-FAK mouse embryonic fibroblasts were seeded on fibronectin and incubated for 1 h with the indicated concentrations of the small compounds, respectively. […] GFP-FAK mouse embryonic fibroblasts were seeded on fibronectin and serum-starved overnight. The indicated concentrations of Mb31 were applied for 30 min. Cells were lysed and analyzed for paxillin and FAK protein level as well as FAK Tyr397 phosphorylation. […] The purified kinase domain of FAK was incubated with increasing amounts of Mb31 for 1 h at 30°C together with poly-Glu-Tyr as a FAK substrate. […] Cell viability was assessed by MTT assay. […] Migration was recorded from cells that were cultured without serum (A), with serum (B) or with serum in the presence of 3 µM Mb31 (C). […] Mouse embryonic fibroblasts (MEFs) were transfected with talin-mCherry and talin dynamics analyzed in focal adhesions using fluorescence recovery after photobleaching (FRAP). […] (C) Wound closure was microscopically analyzed and evaluated using ImageJ software. […]

compounds showing the most prominent effect on protein-protein interactions at focal adhesion site (FAK/Paxillin)	Structure (SMILES)	migration of cancer cells / wound closure [1]	disruption of protein-protein interactions at focal adhesion site (FAK/Paxillin)	Displaced from focal adhesions (focal adhesion proteins)	No effect on localization (focal adhesion proteins)	cell viability / toxicity ([2]; listed as Mb31)	cell viability / toxicity [2]
most prominent effect	O=[N+]([O-])C=Cc1cc(Br)cs1 [FootLocker 1, 4-bromo-2-(2-nitrovinyl)thiophene]	retarded the migration of the cancer cells	efficiently disrupt protein-protein interactions at focal adhesion site	Focal adhesion kinase (FAK) and Paxillin and Grb2 and CRKII	Talin; also recorded: α-actinin; also recorded: Vinculin; also recorded: Zyxin	do not impair cell viability; also recorded: minor toxicity	
most prominent effect	Nc1ccc(SC(C[N+](=O)[O-])c2ccc(Cl)cc2)cc1 (stereo not drawn) [FootLocker 2, 4-{[1-(4-chlorophenyl)-2-nitroethyl]thio}aniline]		efficiently disrupt protein-protein interactions at focal adhesion site				do not impair cell viability
